Test [1] relates to E-cadherin. Put plainly: EMT phenotype, E-cadherin and vimentin protein in 4T1 clones (microscopy, western blot). It counts as cell-based, mouse. The settings on record: for rank order of effect on R cell epithelial morphology and E-cadherin expression: R cells, 15 or 50 μg/ml, dose dependent. From the text:
(§1) Cells were stained as described previously (Mammoto et al., Cancer Lett. 184:165-170, 2002) and images acquired with a Delta Vision system (Applied Precision, Issaquah, Wash.) equipped with an Axiovert 100 microscope (Carl Zeiss MicroImaging Inc., Shelton, Conn.) and a Photometrics 300 series scientific-grade cooled CCD camera, reading 12-bit images, and using the 63/1.4 NA plan-Neofluar objective. For immunoprecipitation and immunoblotting, tissues were weighed, diced, soaked in ice cold RIPA buffer with 1 mM phenylmethylsulfonyl fluoride (PMSF), 1 μg/ml Aprotinin, 1 mM Na3VO4, 1 nM NaF, homogenized on ice, centrifuged at 10,000 g for 10 minutes at 4° C., and the supernatant fluid collected as total cell lysate. Cultured cells were washed, scraped, and solubilized in a lysis buffer containing 20 mM Tris-HCl pH 7.5, 150 mM NaCl, 0.5% Triton X-100, 1% aprotinin, and 1 mM PMSF. After 20 minutes on ice, the cells were pelleted by centrifugation and the supernatants were used as a cell lysate. Cell lysates or immunoprecipitated cell lysates were separated by PAGE (NuPAGE® gels; Invitrogen, Carlsbad, Calif.), followed by electroblotting onto a polyvinylidenedifluoride membrane (PVDF). Protein bands were detected using SuperSignal® West Pico Chemiluminescent Substrate (Pierce Chemical Co., Rockford, Ill.) (Hanai et al., J. Cell. Biol. 158:529-539, 2002).
To assess the effects of lipocalin 2 on ras-mediated transformation, we chose a syngeneic spontaneously metastasizing murine breast cancer model (4T1 cell line) and accelerated its metastatic potential by introduction of constitutively active mouse H-ras mutant A12 using retrovirus. […] We generated stable clones of 4T1-ras cells expressing lipocalin 2 (RL) by transfection of a lipocalin 2 expression plasmid (lipocalin 2-pcDNA3.1). […] (FIG. 2A, lower panel, and FIG. 2B). […] Expression of E-cadherin in RL cells was dependent on the dose of lipocalin 2-pcDNA3.1 expression vector (transiently introduced in a population of R cells), on a conditioned medium containing lipocalin 2 (FIGS. 2D-E), as well as on recombinant lipocalin 2 protein. R cells shown in FIG. 2D were seeded in a 6-well plate and transfected with lipocalin 2 by FuGene 6 at 40% confluency. After 48 hours, cells were trypsinized, respread on 6-well plate, and transfected again in the same conditions. After 72 hours, cells were harvested and analyzed by western blotting. EV cells in FIG. 2E were seeded in a 6-well plate with 1 ml/well containing 10% FCS with DMEM and 2 ml of CM was added at 10% confluency. After 72 hours, cells were harvested and analyzed by western blotting. CM is a mixture of media from 293T cells transfected with lipocalin 2 and from 293 cells transfected with empty vector (pcDNA3.1).
(A western blot detects proteins with antibodies after separation by electrophoresis.)

Test [2] has as its system VEGF. Put plainly: Measurement of VEGF levels by ELISA in conditioned media of 4T1 cells. The settings on record: R cells; 2 days of incubation; dose dependent. It counts as cell-based, mouse. The protocol:
Conditioned media of 4T1 cells were collected after 2 days of incubation. Murine VEGF levels were determined in duplicate using a commercially available sandwich ELISA kit (R&D Systems, Minneapolis, Minn.), with a affinity purified polyclonal antibody specific for mouse VEGF has been pre-coated onto a microplate. Results were compared with a standard curve of mouse VEGF with a lower detection limit of 7 pg/mL. A model 680 microplate-reader (Bio-Rad Laboratories, CA) was used to measure light intensity correlating with VEGF binding.

Test [3] relates to E-cadherin. Put plainly: E-cadherin phosphorylation (immunoprecipitation and western blot). It is filed as cell-based, mouse. The settings on record: R cells vs RL cells or R cells with inhibitor.
Source text: as §1

For test [4], the system named is E-cadherin. Put plainly: Induction of E-cadherin in embryonic mesenchyme. It is filed as cell-based, rat. The settings on record: enterochelin siderophore complex with gallium instead of iron.
Test [5] concerns raf, MEK, and ERK1/2. Put plainly: Western blots with phosphospecific antibodies for ras-MAPK signaling molecules. It counts as cell-based, mouse. The settings on record: R cells.
Source text: as §1, with “After 20 minutes on ice, the cells were pelleted by centrifugation and the supernatants were used as a cell lysate. Cell lysates or immunoprecipitated cell lysates were separated by PAGE (NuPAGE® gels; Invitrogen, Carlsbad, Calif.), followed by electroblotting onto a polyvinylidenedifluoride membrane (PVDF).” left out
For these experiments, EV and R cells were starved in DMEM without serum for 48 hours. […] Signaling events downstream of ERK activation were then monitored with a multi-copy serum-response element (SRE)-luciferase construct introduced into EV, R, and RL (FIG. 6B). […]

The test system of test [6] is serum-response element (SRE). Put plainly: SRE-luciferase assay. It counts as cell-based, mouse. As to the method:
After transient transfection of the plasmids, cells were incubated for 20 hours in 10% FCS and luciferase activity in the cell lysates was determined using a luminometer normalized by sea-pansy luciferase activity under the control of the thymidine kinase promoter. The Dual-Luciferase Reporter Assay System was purchased from Promega (Madison, Wis.) (Hanai et al., J. Biol. Chem. 277:16464-16469, 2002).
For these experiments, EV and R cells were starved in DMEM without serum for 48 hours. During this time, half of the R cells were incubated with 50 μg/ml of lipocalin 2 protein with iron-loaded siderophore (R+Lipo:Sid:Fe), after which all cells were incubated with 10% FCS containing DMEM for 20 minutes and then harvested for western blotting with phosphospecific antibodies. Signaling events downstream of ERK activation were then monitored with a multi-copy serum-response element (SRE)-luciferase construct introduced into EV, R, and RL (FIG. 6B). For these experiments, an SRE-luciferase assay was performed on 4T1 clones after the 48 hour incubation in serum free DMEM. […] Just like R cells treated with exogenous protein (FIG. 6A), R cells infection with recombinant adenovirus carrying lipocalin 2, but not GFP, reduced SRE-luciferase activity, MEK, and ERK1/2 phosphorylation, without altering ras expression.
To localize the effect of lipocalin on ras-MAPK signaling, we utilized an adenovirus and expression plasmid encoding a constitutively active MEK (MEK-DD) (Murakami et al., Cell Growth Differ 10:333-342, 1999). MEK-DD adenoviral infection of EV cells led to increased SRE-luciferase activity (increased MAPK activity). […] RL cells in a 6-well plate were infected with an adenovirus carrying the MEK dominant active form (MEK-DD) and a Lac-Z adenovirus at the indicated multiplicities (MOI) in 2% serum including DMEM medium for 48 hours. Cells were then trypsinized, respread on 6-well plate at 5-10% confluency, and incubated with 10% serum including DMEM medium. Cell lysates were collected for western blotting 48 hours after the final plating (FIG. 6D). […]

From patent US20090305963A1, “Lipocalin 2 for the Treatment, Prevention, and Management of Cancer Metastasis, Angiogenesis, and Fibrosis” (priority 2005, published 2009) come the findings set out here.

Structures can show the parent of a compound that is named as a salt. Where a SMILES comes first, the peptide text is derived from it. The star is where a group is joined. Cbz = O=C(OCc1ccccc1)*

As for `CC(C)C[C@@H](C=O)NC(=O)[C@H](CC(C)C)NC(=O)[C@H](CC(C)C)NC(=O)OCc1ccccc1` [MG132] (Cbz-Leu-Leu-Leu-aldehyde), in test [1] (0.5 nM for 2 days), the “E-cadherin protein in EV cells” value is recorded as “increased E-cadherin protein”, the “E-cadherin protein in R cells” value is listed as “increased E-cadherin protein” and the “E-cadherin protein in RL cells” value is “only slightly increased E-cadherin”. In addition, the “phenotype of R cells” value in test [1] (0.5 nM for 48 hours) was “reverted R cells to an epithelial phenotype”.
Consider `N#CC(=C(/N)Sc1ccccc1N)/C(C#N)=C(\N)Sc1ccccc1N` [U0126], for which, in test [2], the “maximum inhibition of VEGF production, each inhibitor alone” value is on record as “approximately 50%”. Also, in test [3], the E-cadherin phosphorylation result was “markedly downregulated”. Besides, the “effect on ras-induced EMT” value in test [1] is listed as “reversed ras-induced EMT”.
With `CC(=O)N(O)CCCCCNC(=O)CCC(=O)N(O)CCCCCNC(=O)CCC(=O)N(O)CCCCCN` [DFO, Deferoxamine mesylate], in test [1] (2-5 μM, 48 hours), the “E-cadherin expression in RL cells” value is “suppressed E-cadherin expression” and the “morphology of RL cells” value is reported as “changed the morphology of RL cells to a mesenchymal phenotype”.
For the molecule `[Ga]` [gallium], the “induction of E-cadherin in mesenchyme when iron is substituted” value in test [4] is recorded as “greatly diminished”.
In the case of `O=S(=O)([O-])[O-].O=S(=O)([O-])[O-].[Fe+3].[NH4+]` [ferric ammonium sulfate], the “phenotype of R cells after adding iron” value in test [1] (50 μM) is recorded as “did not change their phenotype”.
Take `O=c1cc(N2CCOCC2)oc2c(-c3ccccc3)cccc12` [LY294002]: the “maximum inhibition of VEGF production, each inhibitor alone” value in test [2] is “approximately 50%”.

B1: Lipo:Sid:Fe: recombinant mouse lipocalin 2 mixed with iron-loaded bacterial siderophore enterochelin (protein, UniProt P11672 21-200, looked up)
Neutrophil …: QDSTQNLIPAPSLLTVPLQPDFRSDQFRGRWYVVGLAGNAVQKKTEGSFTMYSTIYELQENNSYNVTSILVRDQDQGCRYWIRTFVPSSRAGQFTLGNMHRYPQVQSYNVQVATTDYNQFAMVFFRKTSENKQYFKITLYGRTKELSPELKERFTRFAKSLGLKDDNIIFSVPTDQCIDN
modifications: iron-loaded enterochelin siderophore complex
notes: recombinant mouse lipocalin 2 mixed with iron-loaded bacterial siderophore enterochelin
With B1, the total ras expression result in test [5] (50 μg/ml for 48 hours) is “unchanged”. Besides, the “ras induced phosphorylation of raf, MEK, and ERK1/2” value in test [5] (50 μg/ml for 48 hours serum free, then 10% FCS 20 minutes) is “largely abrogated”. Further, the “rank order of effect on R cell epithelial morphology and E-cadherin expression” value in test [1] is given as “Lipo:Sid:Fe>Lipo:Sid>Lipo”. Moreover, in test [6] (EV cells transfected with H-ras V12), the “SRE-luciferase activity induced by CA-H-ras” value is reported as “downregulated SRE-luciferase activity”. In addition, the “inhibition of MEK-DD induced SRE-luciferase activity” value in test [6] (EV cells transfected with MEK-DD) is reported as “unable to inhibit this effect”.

B2: Lipo: recombinant mouse lipocalin 2 protein expressed in E. coli BL21, without siderophore (protein, UniProt P11672 21-200, looked up)
Neutrophil …: QDSTQNLIPAPSLLTVPLQPDFRSDQFRGRWYVVGLAGNAVQKKTEGSFTMYSTIYELQENNSYNVTSILVRDQDQGCRYWIRTFVPSSRAGQFTLGNMHRYPQVQSYNVQVATTDYNQFAMVFFRKTSENKQYFKITLYGRTKELSPELKERFTRFAKSLGLKDDNIIFSVPTDQCIDN
For the molecule B2, in test [1], the “rank order of effect on R cell epithelial morphology and E-cadherin expression” value is listed as “Lipo:Sid:Fe>Lipo:Sid>Lipo”.

B3: Lipo:Sid: recombinant mouse lipocalin 2 mixed with iron-unloaded bacterial siderophore enterochelin (protein, UniProt P11672 21-200, looked up)
Neutrophil …: QDSTQNLIPAPSLLTVPLQPDFRSDQFRGRWYVVGLAGNAVQKKTEGSFTMYSTIYELQENNSYNVTSILVRDQDQGCRYWIRTFVPSSRAGQFTLGNMHRYPQVQSYNVQVATTDYNQFAMVFFRKTSENKQYFKITLYGRTKELSPELKERFTRFAKSLGLKDDNIIFSVPTDQCIDN
modifications: iron-free enterochelin siderophore
notes: recombinant mouse lipocalin 2 mixed with iron-unloaded bacterial siderophore enterochelin
Turning to B3, the “rank order of effect on R cell epithelial morphology and E-cadherin expression” value in test [1] is “Lipo:Sid:Fe>Lipo:Sid>Lipo”.
